From patent US20220170859A1, “PARTICLE LABELING REAGENT, PARTICLE DYEING METHOD, AND MICROSCOPIC SYSTEM” (SONY GROUP CORPORATION, priority 2019, published 2022)

Test system: Jurkat cells
Conditions: Jurkat cells dyed with 50 μM reagent in PBS; UV 365 nm 10 minutes vs no UV
Experimental: 1 mL of Jurkat cells 3.0×10^6 cells/PBS (−), the Jurkat cells being human leukemia T cell lines, was prepared in a 1.5 mL Eppendorf tube, and centrifuged at 200×g for five minutes. The supernatant was removed, and 1 mL of a 50 μM MeNPOC-biotin-sulfo-NHS ester.Na/PBS solution was added thereto. The mixture was shielded from light by an aluminum foil, and allowed to stand at room temperature for 20 minutes. The mixture was centrifuged at 200×g for five minutes, and the supernatant was removed. The residue was resuspended in 1 mL of PBS (−) and centrifuged again at 200×g for five minutes, and the supernatant was removed. PBS (−) was added thereto, and the cell concentration was measured with a cell counter, and then the concentration was adjusted to 1.5×10^5 cells/mL. The cells were added dropwise at 0.1 mL/well to a COC film bottom 96 well plate that had been soaked with 1% BSA overnight, and centrifuged at 120×g for one minute to precipitate the cells on a well bottom surface. Subsequently, the sample was irradiated with UV light from the well bottom surface side for 10 minutes using a UV-LED (LED 365-SPT, Optocode, λp=365 nm, about 17 mW/cm^2). As a comparison, a sample not irradiated with UV light was allowed to stand for 10 minutes. The cell suspension was collected from the wells, and PBS was added thereto to adjust the volume to 0.8 mL. […]

MeNPOC-biotin-sulfo-NHS ester sodium salt
fluorescence intensity (adsorption of Alexa Fluor 488 labeled streptavidin): fluorescence intensity changed depending on presence or absence of UV irradiation
